This note sets out measurements from patent US20240299591A1, “Antimicrobial Peptides and Their Use” (priority 2021, published 2024).

In brackets after ≈: the same amount, converted by molar mass. Where a SMILES comes first, the peptide text is derived from it. [ ]: non-standard residue; d: D form. The star is where a group is joined. X1 = CN1/C(=C/C=C(/C=C/C2=[N+](C)c3ccccc3C2(C)C)c2ccc(C(=O)*)cn2)C(C)(C)c2ccccc21; X2 = O=C1OC2(c3ccc(O)cc3Oc3cc(O)ccc32)c2cccc(C(=O)*)c21

One assay deals with Fusarium oxysporum. It counts as cell-based. Particulars: 24 h. The procedure: Dose dependent inhibition of fungal growth by all non-labelled peptides (indicated by IC50 values) was determined via this methodology. The assays were performed using Nunc 262162 U96 polystyrene round bottomed clear plates (www.nuncbrand.com).
(§1) When testing the peptides against A. fumigatus, peptides at different concentrations were mixed with A. fumigatus conidia to reach a final volume of 100 μL per well. The final conidial concentration was 5×10^5 cells/mL in 10% Vogel's medium. After 24 h of incubation at 37° C. in 96 well plates, fungal growth with the different peptide concentrations was determined by measurement of the optical density at 610 nm in a TriStar LB 941 Multimode Microplate Reader. The IC50 values were determined using four parameter logistic regression formula provided by Sigma Plot 10.0. Values are represented as means±SEM from two independent experiments (n=3).
When testing the peptides against N. crassa and F. oxysporum, experiments were carried as described above apart from the incubation temperature was changed to 25° C. for N. crassa and 35° C. for F. oxysporum.
(§2) The IC50 of the fluorescently labelled peptides cannot be accurately determined using the optical density method described in the last section. This is because the fluorophore structures absorbed light at 610 nm which was the wavelength used for the optical density measurements. In order to overcome this, the BacTiter-Glo™ Microbial Cell Viability Assay kit purchased from Promega was used. The BacTiter-Glo™ Reagent relies on the properties of a proprietary thermostable luciferase (Ultra-Glo™ Recombinant Luciferase) and a proprietary formulation for extracting ATP from fungal cells which will generates a ‘glow-type’ luminescent signal. This is produced by the luciferase reaction shown in Scheme 1, which has a signal half-life of over 30 min depending on the experimental conditions. The luminescent signal is proportional to the amount of ATP present, which is directly proportional to the number of living cells in culture.
(§3) The IC50 assays for all fluorescently labelled peptides were performed using Greiner CELLSTAR white polystyrene wells flat bottomed 96 well plates. The incubation conditions remained the same for the optical density measurement described in the previous section. Once the incubation procedure was finished, the plate was equilibrated to room temperature. A mixture of BacTiter-Glo™ buffer and substrate was then added to the plate (100 μL per well). The plate was shaken for 5 min and read using the Tristar […] luminometer. Data analysis was performed using Sigma Plot 10.0. All values shown are presented as means±SEM from two independent experiments (n=3).

The next assay concerns Aspergillus fumigatus. It counts as cell-based. Particulars: 24 h. On the procedure:
The assays were performed using Nunc 262162 U96 polystyrene round bottomed clear plates (www.nuncbrand.com).
as §1, §2, §3

On to `C[C@@H](NC(=O)[C@H](CCCCN)NC(=O)[C@H](CCCCN)NC(=O)[C@@H](N)CCCNC(=N)N)C(=O)N[C@@H](Cc1c[nH]c2ccccc12)C(=O)N[C@@H](Cc1ccccc1)C(=O)N[C@@H](Cc1c[nH]c2ccccc12)C(=O)NCC(=O)O` [MFIGAF000, NH2-Arg-Lys-Lys-ala-Trp-Phe-Trp-Gly-COOH] (HELM PEPTIDE1{R.K.K.[dA].W.F.W.G}$$$$V2.0), for which the “IC50 Fusarium oxysporum” value in the assay on Fusarium oxysporum worked out at 4.2 µg/mL (≈ 3.9 µM). In addition, in the assay with Aspergillus fumigatus, the “IC50 Aspergillus fumigatus” value is 5.3 µg/mL (≈ 4.92 µM).
With `CN1/C(=C/C=C(/C=C/C2=[N+](C)c3ccccc3C2(C)C)c2ccc(C(=O)NCCCC[C@@H]3NC(=O)[C@H](Cc4c[nH]c5ccccc45)NC(=O)[C@H](Cc4ccccc4)NC(=O)[C@H](Cc4c[nH]c5ccccc45)NC(=O)[C@@H](Cc4ccccc4)NC(=O)[C@H](CCCCN)NC(=O)[C@H](CCCCN)NC(=O)[C@H](CCCNC(=N)N)NC3=O)cn2)C(C)(C)c2ccccc21` [MFIGAF001c, Cyclo(Arg-Lys-Lys-phe-Trp-Phe-Trp-Lys(Cy5))] (cyclo(FWK(X1)RKK[dF]W)), the “IC50 Fusarium oxysporum” value with Fusarium oxysporum came out at 1.8 µg/mL. In addition, the “IC50 Aspergillus fumigatus” value in the assay with Aspergillus fumigatus amounted to 1.5 µg/mL.
As for `N=C(N)NCCC[C@@H]1NC(=O)[C@H](CCCCNC(=O)c2cccc3c2C(=O)OC32c3ccc(O)cc3Oc3cc(O)ccc32)NC(=O)[C@H](Cc2c[nH]c3ccccc23)NC(=O)[C@H](Cc2ccccc2)NC(=O)[C@H](Cc2c[nH]c3ccccc23)NC(=O)[C@@H](Cc2ccccc2)NC(=O)[C@H](CCCCN)NC(=O)[C@H](CCCCN)NC1=O` [MFIGAF001d, Cyclo(Arg-Lys-Lys-phe-Trp-Phe-Trp-Lys(CF))] (cyclo(FWK(X2)RKK[dF]W)), the “IC50 Fusarium oxysporum” value in the assay on Fusarium oxysporum was determined as 3.0 µg/mL (≈ 1.92 µM). Further, in the assay with Aspergillus fumigatus, the “IC50 Aspergillus fumigatus” value was 2.9 µg/mL (≈ 1.85 µM).
In the case of `N=C(N)NCCC[C@H](N)C(=O)N[C@@H](CCCCN)C(=O)N[C@@H](CCCCN)C(=O)N[C@H](Cc1ccccc1)C(=O)N[C@@H](Cc1c[nH]c2ccccc12)C(=O)N[C@@H](Cc1ccccc1)C(=O)N[C@@H](Cc1c[nH]c2ccccc12)C(=O)NCC(=O)O` [MFIGAF002, NH2-Arg-Lys-Lys-phe-Trp-Phe-Trp-Gly-COOH] (HELM PEPTIDE1{R.K.K.[dF].W.F.W.G}$$$$V2.0), the “IC50 Fusarium oxysporum” value in the assay with Fusarium oxysporum came to 3.5 µg/mL (≈ 3.03 µM). Also, in the assay with Aspergillus fumigatus, the “IC50 Aspergillus fumigatus” value amounted to 2.8 µg/mL (≈ 2.43 µM).
The corresponding values for `N=C(N)NCCC[C@H](N)C(=O)N[C@@H](CCCCN)C(=O)N[C@@H](CCCCN)C(=O)N1CCC[C@H]1C(=O)N[C@@H](Cc1c[nH]c2ccccc12)C(=O)N[C@@H](Cc1ccccc1)C(=O)N[C@@H](Cc1c[nH]c2ccccc12)C(=O)NCC(=O)O` [MFIGAF003, NH2-Arg-Lys-Lys-pro-Trp-Phe-Trp-Gly-COOH] are 4.1 µg/mL (≈ 3.71 µM) and 5.2 µg/mL (≈ 4.71 µM).
`N=C(N)NCCC[C@H](N)C(=O)N[C@@H](CCCCN)C(=O)N[C@@H](CCCCN)C(=O)N1CCC[C@@H]1C(=O)N[C@@H](Cc1c[nH]c2ccccc12)C(=O)N[C@@H](Cc1ccccc1)C(=O)N[C@@H](Cc1c[nH]c2ccccc12)C(=O)NCC(=O)O` [MFIGAF004]: in the assay on Fusarium oxysporum, the “IC50 Fusarium oxysporum” value was determined as 4.1 µg/mL (≈ 3.71 µM). Besides, the “IC50 Aspergillus fumigatus” value with Aspergillus fumigatus came to 5.2 µg/mL (≈ 4.71 µM).
For `C[C@H]1NC(=O)[C@H](CCCCN)NC(=O)[C@H](CCCCN)NC(=O)[C@H](CCCNC(=N)N)NC(=O)CNC(=O)[C@H](Cc2c[nH]c3ccccc23)NC(=O)[C@H](Cc2ccccc2)NC(=O)[C@H](Cc2c[nH]c3ccccc23)NC1=O` [MFIGAF005, Cyclo(Arg-Lys-Lys-ala-Trp-Phe-Trp-Gly)] (HELM PEPTIDE1{F.W.G.R.K.K.[dA].W}$PEPTIDE1,PEPTIDE1,1:R1-8:R2$$$V2.0) the same measures were 3.1 µg/mL (≈ 2.92 µM) and 6.3 µg/mL (≈ 5.94 µM).
Take `N=C(N)NCCC[C@@H]1NC(=O)CNC(=O)[C@H](Cc2c[nH]c3ccccc23)NC(=O)[C@H](Cc2ccccc2)NC(=O)[C@H](Cc2c[nH]c3ccccc23)NC(=O)[C@@H]2CCCN2C(=O)[C@H](CCCCN)NC(=O)[C@H](CCCCN)NC1=O` [MFIGAF007, Cyclo(Arg-Lys-Lys-pro-Trp-Phe-Trp-Gly)]: in the assay with Fusarium oxysporum, the “IC50 Fusarium oxysporum” value came to 3.4 µg/mL (≈ 3.13 µM). In addition, the “IC50 Aspergillus fumigatus” value with Aspergillus fumigatus was 5.2 µg/mL (≈ 4.79 µM).
